The values that follow come from paper PMC12837263, “β,β-Dimethylacrylalkannin Restores Colistin Efficacy Against mcr- and TCS-Mediated Resistant Gram-Negative Bacteria via Membrane Disturbance” (Antibiotics, 2025).

One data set has as its system six susceptible strains. Description: Checkerboard assay, six susceptible strains (summary). The class given is cell-based. The settings on record: with β,β-Dim. On the procedure:
(§1) The FICI of β,β-Dim–colistin combination was determined by a checkerboard assay. Briefly, two-fold serial dilutions of β,β-Dim and colistin were prepared in a 96-well plate. After incubation at 37 °C for 18 h with bacterial suspension (10^6 CFU/mL), OD600 values were measured. FICI = (MICβ,β-Dim in combination/MICβ,β-Dim) + (MICcolistin in combination/MICcolistin). The synergistic effect of β,β-Dim with other antibiotics was measured in the same way. Synergy was considered to be an FICI ≤ 0.5.

The test system of data set [1] is E. coli (including mcr-1, mcr-3, and pmrA/B). Description: Checkerboard assay, colistin-resistant E. coli (summary). In kind it is cell-based. The following applies: with β,β-Dim. How it is done:
as §1

The test system of data set [2] is E. coli BW25113, E. coli BW25113-mcr-1, E. coli BW25113-pmrBR93P. Description: Intracellular colistin content (HPLC-MS/MS). In kind it is cell-based. The following applies: colistin 0.5 × MIC with β,β-Dim at the highest tested concentration; 30 min. On the procedure:
Overnight cultures E. coli BW25113, E. coli BW25113-mcr-1, and E. coli 1 BW25113-pmrBR93P were diluted to 10^8 CFU/mL and then co-incubated with colistin (0.5 × MIC) in the presence of β,β-Dim (0–4 μg/mL) for 30 min at 37 °C. The cultures were centrifuged and resuspended in 30% methanol. Bacteria were disrupted by sonication and centrifugation, supernatants were diluted in 20% acetonitrile, and intracellular colistin was quantified via HPLC-MS/MS (TQ-XS, Waters, Milford, MA, USA). Analyses were performed on a CORTECS Shield RP C18 column (Waters, Milford, MA, USA) at 40 °C, with a flow rate of 0.4 mL/min and an injection volume of 5 μL. The mobile phases consisted of solvent A (0.5% formic acid and acetonitrile in water) and solvent B (0.5% formic acid in water). Colistin was detected in positive ESI mode with ion transitions […] and m/z 386.0 > 101.0. […] Mobile phases included solvent A (acetonitrile) and solvent B (water). β,β-Dim was detected in the negative electrospray ionization (ESI) mode with ion transitions m/z 369.1 > 269.0 and m/z 369.1 > 241.0.

The subject of another data set is sheep blood cells. Description: Hemolytic activity. The following applies: Ovis aries, Erythrocyte; sheep erythrocytes, 1 h; selection criterion; read-out: IC50 hemolysis. In kind it is cell-based. On the procedure: (§2) Toxicity assessment was performed by using sheep blood cells, human renal proximal tubular epithelial HK-2, and human hepatocarcinoma HepG2. Briefly, 8% erythrocyte suspensions were incubated with the test compounds (0–250 µM) for 1 h at 37 °C. After centrifugation, supernatants were transferred to a 96-well plate, and absorbance was measured at 570 nm.
(§3) The HepG2 and HK-2 cells (10^4 cells/well) were cultured in DMEM medium containing 10% fetal bovine serum (FBS) and then placed in a 5% CO2 incubator for 24 h. The culture medium was replaced with fresh DMEM medium containing the compounds (0–250 µM), followed by a further 24 h incubation. Subsequently, 10 µL of CCK-8 was added and incubated for 1 h, and OD450nm values were measured.Hemolysis% = [OD570nm(drug) − OD570nm(blank)]/[OD570nm(TritonX−100) − OD570nm(blank)] × 100%Cell viability% = [OD450nm(drug) − OD450nm(blank)]/[OD450nm(negative) − OD450nm(blank)] × 100%

The nature of the next data set: Cytotoxicity (CCK-8). In kind it is cell-based. The settings on record: human, HK-2 cells and HepG2 cells; HK-2 and HepG2, 24 h; selection criterion. On the procedure: as §2, §3
Data set [3] relates to S. aureus ATCC 29213. The data set can be described thus: Membrane permeability (PI). The settings on record: β,β-Dim 0–32 µg/mL, 1 h. In kind it is cell-based. On the procedure: The S. aureus ATCC 29213 bacterial suspension (OD600 = 0.5) was incubated with fluorescent probe propidium iodide (PI, Cat No. C1008S, Beyotime, Shanghai, China, final concentration 10 µM) for 30 min. Then, β,β-Dim (0–32 µg/mL) was added to the PI-labeled suspension in a black 96-well plate and incubated for 1 h. Fluorescence intensity was measured at an excitation/emission wavelength of 535/615 nm. The cytoplasmic membrane permeability of E. coli BW25113, E. coli BW25113-mcr-1, and E. coli BW25113-pmrBR93P induced by β,β-Dim was assessed by preparing spheroplasts.

The test system of another data set is E. coli spheroplasts. The data set can be described thus: Membrane permeability of spheroplasts (PI). In kind it is cell-based. How it is done: The cytoplasmic membrane LPS concentrations of E. coli BW25113, E. coli BW25113-mcr-1, and E. coli BW25113-pmrBR93P were quantified using a Chromogenic LAL Endotoxin Assay Kit (Cat No, C0273S, Beyotime, Shanghai, China). Firstly, spheroplasts were prepared according to a previously described method to remove the outer membrane. Briefly, bacterial cells were washed with Tris buffer and resuspended in Tris buffer containing 20% sucrose. EDTA (250 μL, 10 mg/mL) and lysozyme (1 mL, 10 mg/mL) were added, followed by incubation at 30 °C for 1 h with shaking at 80 rpm. Trypsin (500 μL, 10 mg/mL) was added and incubated for an additional 15 min. […] Then, the released LPS was quantified by reacting with LPS detection reagents, and absorbance was measured at 405 nm.
The S. aureus ATCC 29213 bacterial suspension (OD600 = 0.5) was incubated with fluorescent probe propidium iodide (PI, Cat No. C1008S, Beyotime, Shanghai, China, final concentration 10 µM) for 30 min. […] Fluorescence intensity was measured at an excitation/emission wavelength of 535/615 nm. The cytoplasmic membrane permeability of E. coli BW25113, E. coli BW25113-mcr-1, and E. coli BW25113-pmrBR93P induced by β,β-Dim was assessed by preparing spheroplasts.

Data set [4] has as its system S. aureus ATCC 29213. Description: Membrane potential, proton gradient and PMF. In kind it is cell-based.
The conditions of data set [5]: acute oral, mice; cited from earlier work.
The conditions of data set [6]: rats; cited from earlier work.
For data set [7] the following is noted: cited from earlier work.

With colistin, the “reduction of colistin MIC” value in the data set on six susceptible strains is given as 4–64 fold. Also, in data set [1], the “improvement of colistin efficacy (MIC reduction)” value is recorded as 4–32 fold. Further, the intracellular colistin levels entry in data set [2] is given as “exceeding 0.6 µg per 10^8 CFUs”.
One may read the IC50 as the midpoint of a concentration-inhibition curve. As for `CC(C)=CC[C@H](OC(=O)C=C(C)C)C1=CC(=O)c2c(O)ccc(O)c2C1=O` [β,β-Dim, β,β-dimethylacrylalkannin], in the data set on sheep blood cells, the IC50 was above 10 µM. For the same compound, the IC50 at 24 h in the data set “Cytotoxicity (CCK-8)” was above 10 µM. The “membrane permeability (PI fluorescence intensity)” value in the data set on S. aureus ATCC 29213 [3] is reported as “increased membrane permeability in a concentration-dependent manner”. For the same compound, the membrane permeability result with E. coli spheroplasts is on record as “markedly increased membrane permeability”. Moreover, the “membrane potential, proton gradient, PMF” value with S. aureus ATCC 29213 [4] is “increased membrane potential in S. aureus ATCC 29213, reduced the proton gradient, and dissipated the PMF”. Also, in [5], the “median lethal dose (LD50)” value is on record as “exceeds 10 g/kg”. In [6], the maximum tolerable dose entry is “exceeds 10 g/kg” and the “no-observed-adverse-effect level (NOAEL)” value is recorded as 10 mg/kg. Also, in [7], the lipophilicity result is reported as “high lipophilicity”.
